Tested on: 843782-103-R-J1-PDC complex spheroid viability
Assay: Anticancer human tumor 843782-103-R-J1-PDC patient-derived lung adenocarcinoma cell line growth inhibition [RAS]
Conditions: for IC50: curve of first compound; for viability, T/C: stronger effect = lower value
Summary of the method: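 Agents were tested in combination matrices in half-log decrements from a top concentration at or near clinical Cmax (10 microM if undetermined). Targets were multi-cell spheroids of tumour lines plus HUVEC and MSC stromal cells.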
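Further: viability read after seven days of compound exposure.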

Work on `CCC(CC)c1cc(NC2CCC(N)C2)n2nccc2n1` (centres undefined) + C=CC(=O)N1CCN(c2nc(OCC3CCCN3C)nc3c(F)c(-c4nc(N)cc(C)c4C(F)(F)F)c(Cl)cc23)C(C)C1 yielded an IC50 (second compound 0.00316 µM) of 1.42 µM, an IC50 (second compound 0.01 µM) of 1.5 µM and an IC50 (second compound 0.0316 µM) of 1.42 µM. The IC50 (second compound 0.1 µM) was 1.48 µM, the IC50 (second compound 0.316 µM) was 1.42 µM and the IC50 (second compound 1 µM) was 1.63 µM. For the same compound, the viability, T/C (second compound 0.00316 µM, first compound 0.0316 µM) was 99.4%, the viability, T/C (second compound 0.00316 µM, first compound 0.1 µM) was 87.9% and the viability, T/C (second compound 0.00316 µM, first compound 0.316 µM) was 91.9%. For the same compound, the viability, T/C (second compound 0.00316 µM, first compound 1 µM) was 71.3%, the viability, T/C (second compound 0.00316 µM, first compound 3.16 µM) was 1.31% and the viability, T/C (second compound 0.00316 µM, first compound 10 µM) was 0.48%. For the same compound, the viability, T/C (second compound 0.01 µM, first compound 0.0316 µM) was 94.5%, the viability, T/C (second compound 0.01 µM, first compound 0.1 µM) was 88.3% and the viability, T/C (second compound 0.01 µM, first compound 0.316 µM) was 84.7%. It also gave a viability, T/C (second compound 0.01 µM, first compound 1 µM) of 76.2%, a viability, T/C (second compound 0.01 µM, first compound 3.16 µM) of 1.43% and a viability, T/C (second compound 0.01 µM, first compound 10 µM) of 0.54%. It also gave a viability, T/C (second compound 0.0316 µM, first compound 0.0316 µM) of 91.6%, a viability, T/C (second compound 0.0316 µM, first compound 0.1 µM) of 88.5% and a viability, T/C (second compound 0.0316 µM, first compound 0.316 µM) of 83.3%. For the same compound, the viability, T/C (second compound 0.0316 µM, first compound 1 µM) was 71.2%, the viability, T/C (second compound 0.0316 µM, first compound 3.16 µM) was 1.09% and the viability, T/C (second compound 0.0316 µM, first compound 10 µM) was 0.49%. The viability, T/C (second compound 0.1 µM, first compound 0.0316 µM) was 79.9%, the viability, T/C (second compound 0.1 µM, first compound 0.1 µM) was 87.6% and the viability, T/C (second compound 0.1 µM, first compound 0.316 µM) was 90.6%. For the same compound, the viability, T/C (second compound 0.1 µM, first compound 1 µM) was 75.3%, the viability, T/C (second compound 0.1 µM, first compound 3.16 µM) was 1.17% and the viability, T/C (second compound 0.1 µM, first compound 10 µM) was 0.4%. For the same compound, the viability, T/C (second compound 0.316 µM, first compound 0.0316 µM) was 91.7%, the viability, T/C (second compound 0.316 µM, first compound 0.1 µM) was 84.8% and the viability, T/C (second compound 0.316 µM, first compound 0.316 µM) was 88.6%. For the same compound, the viability, T/C (second compound 0.316 µM, first compound 1 µM) was 71%, the viability, T/C (second compound 0.316 µM, first compound 3.16 µM) was 1.54% and the viability, T/C (second compound 0.316 µM, first compound 10 µM) was 0.46%. The viability, T/C (second compound 1 µM, first compound 0.0316 µM) was 88.4%, the viability, T/C (second compound 1 µM, first compound 0.1 µM) was 87.1% and the viability, T/C (second compound 1 µM, first compound 0.316 µM) was 88.7%. It also gave a viability, T/C (second compound 1 µM, first compound 1 µM) of 86.1%, a viability, T/C (second compound 1 µM, first compound 3.16 µM) of 0.8% and a viability, T/C (second compound 1 µM, first compound 10 µM) of 0.59%.
For `C[C@@H](NC(=O)c1ncnc(N)c1Cl)c1ncc(C(=O)Nc2cc(C(F)(F)F)c(Cl)cn2)s1` + CCn1c(-c2cccnc2C(C)OC)c2c3cc(ccc31)N1CCOC(CC(NC(=O)C(C(C)C)N(C)C(=O)C3(F)CCN(C(=O)C#CC(C)(C)N(C)C)CC3)C(=O)N3CCCC(N3)C(=O)OCC(C)(C)C2)C1, the IC50 (second compound 0.000949 µM) was greater than 10 µM, the IC50 (second compound 0.003 µM) was greater than 10 µM and the IC50 (second compound 0.00949 µM) was greater than 10 µM. It also gave an IC50 (second compound 0.03 µM) greater than 10 µM, an IC50 (second compound 0.0949 µM) greater than 10 µM and an IC50 (second compound 0.3 µM) greater than 10 µM. The viability, T/C (second compound 0.000949 µM, first compound 0.0316 µM) was 83.6%, the viability, T/C (second compound 0.000949 µM, first compound 0.1 µM) was 84.5% and the viability, T/C (second compound 0.000949 µM, first compound 0.316 µM) was 81.7%. For the same compound, the viability, T/C (second compound 0.000949 µM, first compound 1 µM) was 79.2%, the viability, T/C (second compound 0.000949 µM, first compound 3.16 µM) was 78.3% and the viability, T/C (second compound 0.000949 µM, first compound 10 µM) was 79.2%. For the same compound, the viability, T/C (second compound 0.003 µM, first compound 0.0316 µM) was 77.5%, the viability, T/C (second compound 0.003 µM, first compound 0.1 µM) was 80.8% and the viability, T/C (second compound 0.003 µM, first compound 0.316 µM) was 80.2%. It also gave a viability, T/C (second compound 0.003 µM, first compound 1 µM) of 75.2%, a viability, T/C (second compound 0.003 µM, first compound 3.16 µM) of 89.1% and a viability, T/C (second compound 0.003 µM, first compound 10 µM) of 82.1%. It also gave a viability, T/C (second compound 0.00949 µM, first compound 0.0316 µM) of 76.6%, a viability, T/C (second compound 0.00949 µM, first compound 0.1 µM) of 88.9% and a viability, T/C (second compound 0.00949 µM, first compound 0.316 µM) of 84.4%. The viability, T/C (second compound 0.00949 µM, first compound 1 µM) was 80.3%, the viability, T/C (second compound 0.00949 µM, first compound 3.16 µM) was 78.6% and the viability, T/C (second compound 0.00949 µM, first compound 10 µM) was 77.5%. The viability, T/C (second compound 0.03 µM, first compound 0.0316 µM) was 88.5%, the viability, T/C (second compound 0.03 µM, first compound 0.1 µM) was 83.4% and the viability, T/C (second compound 0.03 µM, first compound 0.316 µM) was 81.4%. For the same compound, the viability, T/C (second compound 0.03 µM, first compound 1 µM) was 79.7%, the viability, T/C (second compound 0.03 µM, first compound 3.16 µM) was 95.9% and the viability, T/C (second compound 0.03 µM, first compound 10 µM) was 68.2%. It also gave a viability, T/C (second compound 0.0949 µM, first compound 0.0316 µM) of 81.2%, a viability, T/C (second compound 0.0949 µM, first compound 0.1 µM) of 86.1% and a viability, T/C (second compound 0.0949 µM, first compound 0.316 µM) of 81.5%. The viability, T/C (second compound 0.0949 µM, first compound 1 µM) was 79%, the viability, T/C (second compound 0.0949 µM, first compound 3.16 µM) was 88.8% and the viability, T/C (second compound 0.0949 µM, first compound 10 µM) was 75.3%. The viability, T/C (second compound 0.3 µM, first compound 0.0316 µM) was 75.7%, the viability, T/C (second compound 0.3 µM, first compound 0.1 µM) was 82.7% and the viability, T/C (second compound 0.3 µM, first compound 0.316 µM) was 77.9%. It also gave a viability, T/C (second compound 0.3 µM, first compound 1 µM) of 75.4%, a viability, T/C (second compound 0.3 µM, first compound 3.16 µM) of 80.1% and a viability, T/C (second compound 0.3 µM, first compound 10 µM) of 76.7%.

Source: PubChem BioAssay AID2060883 (Molecular Pharmacology Branch, DTP, NCI, 2025)
